Assays:
[1] = test system: BV2 (mouse microglia) cell line; assay: pHrodo-myelin phagocytosis/cell viability high content imaging assay: viability (cell count, nuclear area, nuclear intensity); settings: for 1. Cell count (% control) / 2. Nuclear Area (% Control) / 3. Nuclear DNA Intensity (% control): 48 hours treatment
Method: (§1) All AD Informer Set compounds were tested in two immortalized microglial cell lines, murine (BV2), and human (HMC3), in a high‐content imaging assay in duplicate by the Chu lab. Experimental details and all data can be found as supporting information files.
(§2) The role of microglia in AD has been well documented and was thus chosen as a cell type in which to profile the AD Informer Set.[43], [44], [45] As an example, neuroinflammation, as detected by the presence of activated complement proteins, interleukins, cytokines, and chemokines in microglia and astrocytes, is increased early in AD and is considered pathogenic due to its chronic nature.[33], [34] Cytotoxic effects can be assessed by considering multiple parameters.
(§3) Microglial viability and phagocytosis studies: The pHrodo-myelin phagocytosis/cell viability assay, modified based on a published method, was run with immortalized BV2 (mouse microglia) and HMC3 (human microglia) cell lines in the Chu lab at IUSM. The 384-well plate high content analysis assay with BV2 and HMC3 microglial cell lines is used to quantify both phagocytosis and cell viability simultaneously. High content imaging is performed with the ArrayScan automatic imaging system and imaging analysis done with the software on the system. After allowing cells to adhere overnight, they are treated with compounds for total 48 hours including final 20 hours seeded with pHrodo-myelin (labeled phagocytosis ligand, purified […]
(§4) (approximately 22 hours after pHrodo-myelin addition). Three measurements are extracted from the assay: 1) phagocytosis signal by mean total phagocytosis spot intensity per cell, 2) total cell counts per well as the main measurement of cell viability, and 3) mean average nuclear intensity per cell as profiling of cell health since apoptotic cells showing nuclear intensity increase (early apoptosis) and decrease (later apoptosis), respectively. These measurements allow for evaluation of compound-induced phagocytosis (1) and cytotoxicity (2 and 3). Assays were carried out at a single concentration (10 μM). Idelalisib (10 μM) and cytochalasin-D (4 μM) were used as positive controls in the assay. All data, which was an average of 2 data points, was normalized to untreated wells and reported as % control, which is included in the Supporting Information both as a raw data file and summarized in the compound/gene-annotation file.

[2] = test system: HMC3 (human microglia) cell line; assay: as above; settings: for 1. Cell count (% control) / 2. Nuclear Area (% Control) / 3. Nuclear DNA Intensity (% control): 48 hours treatment
Method: as §1, §2, §3, §4

[3] = test system: BV2 (mouse microglia) cell line; assay: pHrodo-myelin phagocytosis/cell viability high content imaging assay: phagocytosis signal; type: cell-based
Method: (§5) It is important to note that stressed cells, such as those that are dying, are prone to show an increase in phagocytosis. […] MerTK promotes phagocytosis and thus MerTK inhibition is proposed to lead to inhibition of phagocytosis.[47]
(§6) phagocytosis and cell viability simultaneously. High content imaging is performed with the
(§7) (approximately 22 hours after pHrodo-myelin addition). Three measurements are extracted
(§8) intensity increase (early apoptosis) and decrease (later apoptosis), respectively. These
and 3). […]

[4] = test system: HMC3 (human microglia) cell line; assay: as above; type: cell-based
Method: as §5, §6, §7, §8
and 3). […]

[5] = BV2 cells, 10 uM compound, 48 hours treatment, pHrodo-myelin final 20 hours
[6] = HMC3 cells, 10 uM compound, 48 hours treatment, pHrodo-myelin final 20 hours
[7] = BV2, compound 10 uM, pHrodo-myelin
[8] = HMC3, compound 10 uM, pHrodo-myelin

Structure (SMILES)	1. Cell count (% control) ([1]; BV2 cells, 10 uM compound)	2. Nuclear Area (% Control) ([1]; BV2 cells, 10 uM compound)	3. Nuclear DNA Intensity (% control) ([1]; BV2 cells, 10 uM compound)	1. Cell count (% control) ([2]; HMC3 cells, 10 uM compound)	2. Nuclear Area (% Control) ([2]; HMC3 cells, 10 uM compound)	3. Nuclear DNA Intensity (% control) ([2]; HMC3 cells, 10 uM compound)	4. Phagocytosis (% control) [3, 5] [% control]	4. Phagocytosis (% control) [4, 6] [% control]	cytotoxicity in mouse microglial cells (cell count < 70% control) ([1]; BV2, 10 μM, 48 hours, cell count)	cytotoxicity in human microglial cells (cell count < 70% control) ([2]; HMC3, 10 μM, 48 hours, cell count)	1. Cell count (% control) ([1]; BV2, compound 10 uM)	2. Nuclear Area (% Control) ([1]; BV2, compound 10 uM)	3. Nuclear DNA Intensity (% control) ([1]; BV2, compound 10 uM)	1. Cell count (% control) ([2]; HMC3, compound 10 uM)	2. Nuclear Area (% Control) ([2]; HMC3, compound 10 uM)	3. Nuclear DNA Intensity (% control) ([2]; HMC3, compound 10 uM)	4. Phagocytosis (% control) [3, 7] [% control]	4. Phagocytosis (% control) [4, 8] [% control]
C=CC(=O)Nc1cc2c(Nc3ccc(F)c(Cl)c3)ncnc2cc1OCCCN1CCOCC1.Cl.Cl [UNC10126563B]	25.9	92.7	52.1	45.6	65.0	201.5	4.1	0.263	–	–	–	–	–	–	–	–	–	–
Cc1ccc(NC(=O)c2ccc(CN3CCN(C)CC3)cc2)cc1Nc1nc(-c2cccnc2)cs1 [UNC10126573A, masitinib, reference compound]	7.7	107.9	43.3	71.0	92.7	124.1	0.0635	3.5	displayed cytotoxicity only in mouse microglia	cytotoxicity only in mouse microglia	–	–	–	–	–	–	–	–
O=C(Nc1c[nH]nc1-c1nc2cc(CN3CCOCC3)ccc2[nH]1)NC1CC1 [UNC10126643A]	6.1	158.4	29.9	85.8	114.0	123.7	1.0	64.5	–	–	–	–	–	–	–	–	–	–
CC(C)(C)c1cc(NC(=O)Nc2ccc(-c3cn4c(n3)sc3cc(OCCN5CCOCC5)ccc34)cc2)no1 [UNC10220373A]	–	–	–	–	–	–	–	–	–	–	110.4	100.2	106.6	110.3	101.4	94.2	143.1	81.7
C[C@@H](Oc1cc(-c2cnn(C3CCNCC3)c2)cnc1N)c1c(Cl)ccc(F)c1Cl [UNC10220526A]	44.9	109.8	15.3	41.7	75.9	183.7	0.00113	0.09	–	–	–	–	–	–	–	–	–	–
Nc1nc(Nc2ccc3c(c2)CC[C@@H](N2CCCC2)CC3)nn1-c1cc2c(nn1)-c1ccccc1CCC2 [UNC10220544A]	2.8	94.5	55.2	56.4	55.3	170.6	0.0	0.8	–	–	–	–	–	–	–	–	–	–
CC1(COc2ccc3c(c2)ncn3-c2ccc3cccc(N4CCC(N)CC4)c3n2)COC1 [UNC10223898A]	–	–	–	–	–	–	–	–	–	–	26.6	103.7	28.1	60.3	56.9	188.8	0.00125	0.347
Cc1ccc(-n2nc(C(C)(C)C)cc2NC(=O)Nc2ccc(OCCN3CCOCC3)c3ccccc23)cc1 [UNC10225354A]	127.7	105.8	105.3	144.2	99.1	93.2	236.7	109.7	–	–	–	–	–	–	–	–	–	–

Reference: PMC9019904, “AD Informer Set: Chemical tools to facilitate Alzheimer's disease drug discovery” (Alzheimer's & Dementia : Translational Research & Clinical …, 2022)
